Data taken from patent publication US20250041214A1, “INHALABLE OR INGESTIBLE LACTIC ACID COMPOSITIONS FOR THE TREATMENT OF CHRONIC LUNG DISEASE” (Alveolus Bio, Inc., priority 2021, published 2025).
Entries after “also recorded” stand apart in the source; their conditions may differ.

How the values were obtained:
[1] = tested on: Matrix Metalloproteinase-9 (MMP-9) mRNA; test: MMP-9 mRNA in E. coli-treated HBE cells (dysbiosis model of lung epithelial cells), qRT-PCR; format: cell-based, human; settings: 4 hours at 37° C.
Protocol: In FIG. 2, human primary epithelial (HBE) cells were seeded on a 6 well plate with 4×10^5 cells in each well. 16 hours later, the medium was changed to fresh DULBECCO'S Modified Eagle Medium/Nutrient Mixture F-12 (DMEM/F12) without antibiotic, and E. coli was added to the cells at a final concentration of 5.0×10^7 E. coli cells/ml. L(+) Lactic acid was added together with E. coli at a final lactic acid concentration of 5 mM, 10 mM, or 20 mM. The cells were incubated at 37° C. for 4 hours and then harvested with QIAZOL reagent. RNA was extracted according to the QIAZOL protocol. The level of Matrix Metalloproteinase-9 (MMP-9) mRNA was measured by quantitative real-time PCR (qRT-PCR). In FIG. 5, human bronchial epithelial (HBE) cells were seeded on a 6 well plate with 4×10^5 cells in each well. 16 hours later, the medium was changed to fresh DULBECCO'S Modified Eagle Medium/Nutrient Mixture F-12 (DMEM/F12) without antibiotic, and E. coli was added to the cells at a final concentration of 5.0×10^7 E. coli cells/ml. D(−) Lactic acid was added together with E. coli at a final lactic acid concentration of 0.25 ug/mL, 0.5 ug/mL, or 2 μg/mL. The cells were incubated at 37° C. for 4 hours and then harvested with QIAZOL reagent. RNA was extracted according to the QIAZOL protocol. The level of Matrix Metalloproteinase-9 (MMP-9) mRNA was measured by quantitative real-time PCR (qRT-PCR).

[2] = tested on: Matrix Metalloproteinase-9 (MMP-9) mRNA; test: MMP-9 mRNA in Caco-2 intestinal epithelial cells inoculated with E. coli, qRT-PCR; format: cell-based, human; settings: Caco-2 cells inoculated with E. coli; L(+) lactic acid 1.5 mM, 3 mM or 6 mM; 4 hours at 37° C.
Protocol: In FIG. 3, human intestinal epithelial cells (IECs) from the Caco-2 cell line were seeded on a 6 well plate with 4×10^5 cells in each well. 16 hours later, the medium was changed to fresh DULBECCO'S Modified Eagle Medium/Nutrient Mixture F-12 (DMEM/F12) without antibiotic, and E. coli was added to the cells at a final concentration of 5.0×10^7 E. coli cells/ml. L(+) Lactic acid was added together with E. coli at a final lactic acid concentration of 1.5 mM, 3 mM, or 6 mM. The cells were incubated at 37° C. for 4 hours and then harvested with QIAZOL reagent. RNA was extracted according to the QIAZOL protocol. The level of Matrix Metalloproteinase-9 (MMP-9) mRNA was measured by quantitative real-time PCR (qRT-PCR).

[3] = tested on: MMP-9 mRNA; test: MMP-9 mRNA in A549 NSCLC adenocarcinoma cells inoculated with E. coli, real-time qPCR; format: cell-based; settings: 0.25 μg to 4 ug L-LA, 4 hours at 37° C.
Protocol: In FIG. 4, 2×10^5 A549 cells were seeded in 500 μL growth medium per each well of a 24-well plate. Cells were treated with: (1) 2 uL PBS (control), (2) 5×10^8 E. coli cells (E. coli), (3) or 5×10*8 cells E. coli with 0.25 ug, 0.5 ug, 1 ug, 2 ug, or 4 ug L-lactic acid. The cells were incubated for 4 hours at 37° C. Cells were harvested, RNA was extracted with an RNA extraction kit, the concentration of total RNA was measured, cDNA was obtained using a High-Capacity cDNA Reverse Transcription Kit, and then a TAQMAN real-time qPCR protocol was performed on the cDNA.

[4] = pure water; cited from earlier work

C[C@@H](O)C(=O)O [D-lactic acid]
MMP-9 mRNA levels ([1]; HBE cells inoculated with E. coli, 0.25 μg to 2 ug D-LA): no statistical difference

C[C@H](O)C(=O)O [L-lactic acid]
MMP-9 mRNA levels ([1]; HBE cells treated with E. coli, L(+) lactic acid 5 mM, 10 mM or 20 mM): MMP-9 reduction; also recorded: decreased
MMP-9 mRNA levels [2]: decreased
MMP-9 mRNA levels [3]: decreased

Polyoxyethylene (20) sorbitan monooleate [polysorbate 80]
critical micelle concentration [4]: 0.012 mM
